How the values were obtained:
[1] = test system: thymocytes of C57BL/6 mice (mouse T cells); test: Cell apoptosis induced by glucocorticoids in cultured mouse thymocytes (flow cytometry, propidium iodide); format: cell-based, mouse (C57BL/6)
Procedure: The thymus of C57BL/6 mice aged 4 weeks is removed. Culturing of the thymocytes is carried out for 6 hours in RPMI 1640 medium and in the presence or in the absence of the steroid tested. Apoptosis (fragmentation of the DNA) is measured by flow cytometry after labeling with propidium iodide. The apoptotic phenomenon is checked by electrophoresis of the DNA, which is visualized by ethidium bromide according to the conventional technique (observation of ranges of 200 base pairs).

[2] = Viability of human keratinocytes in culture (MTT test); format: cell-based; conditions: human, primary human keratinocytes in monolayer culture
Procedure: (§1) Human keratinocyzes are obtained from parts removed by surgery and are cultured in a monolayer to preconfluence. 7α-Hydroxy-DHEA is administered to these cultures at various concentrations in ethanolic solution (10%), each concentration being tested eight times. Controls are carried out with ethanol alone (10%). After 24 hours, the viability of the keratinocytes is measured by testing with MTT (3-(4,5-dimethylthiazol-2-yl)-2,5-diphenyltetrazolium bromide) where the mitochondrial dehydrogenase succinate transforms the MTT into blue crystals of formazan which are soluble in DMSO (Mosmann, J. Immunol. Methods 65: 55-63, 1983). The cell viability is calculated according to the formula:
(§2) Any value greater than 100 indicates a product favoring cell viability.

human keratinocytes [3] = test: as above; format: cell-based; conditions: concentrations tested 10^−4 M to 10^−8 M
Procedure: as §1, §2

human keratinocytes [4] = test: Anti-free radical effect on UVA-irradiated suspension of human keratinocytes (lipid peroxides by chemiluminescence); format: cell-based; conditions: 10^−6 M, calculated on nonirradiated controls and reference of protection
Procedure: Keratinocytes originating from a healthy donor are cultured to the subconfluent stage in medium (KGM) which is specific for the proliferation of the keratinocytes. The suspensions obtained are divided in triplicate into 4 series of which 3 are irradiated for 30 min with a lamp emitting UVA in order to activate the production of free radicals. Among the three irradiated series, one contains the vitamins C+E (0.7%) and serves as a reference of protection, one contains 7α-hydroxy-DHEA at 10^−6M and the last serves as a control.
The free radicals produced generate lipid peroxides which are determined by chemiluminescence (Belghmi et al. J. Biolum. Chemilum. 2: 113-119, 1982). The efficacy of 7α-hydroxy-DHEA is calculated on the basis of nonirradiated controls and of the reference of protection.

[5] = steroid 10^−5 M together with Dexamethasone 10^−5 M, 6 hours, dexamethasone alone 73.5
[6] = steroid 10^−6 M together with Dexamethasone 10^−6 M, 6 hours, dexamethasone alone 72.7

## C[C@]12CC[C@H](O)C[C@@H]1C[C@@H](O)[C@@H]1[C@@H]2CC[C@]2(C)C(=O)CC[C@@H]12 [7α-hydroxy-ISOA, 3β,7α-dihydroxy-5α-androstan-17-one]
[1]; [5]
  Apoptotic cells (%): 46.3%
[1]; [6]
  Apoptotic cells (%): 72.0%

## C[C@]12CC[C@H](O)CC1=C[C@@H](O)[C@@H]1[C@@H]2CC[C@]2(C)C(=O)CC[C@@H]12 [7α-hydroxy-DHEA, 3β,7α-dihydroxy-5-androsten-17-one]
[2]; 5.10^−5 M, 24 hours, control 100
  viability at 24 h: 111 ± 7%
[2]; 5.10^−6 M, 24 hours, control 100
  viability at 24 h: 147 ± 9%
[2]; 5.10^−7 M, 24 hours, control 100
  viability at 24 h: 139 ± 3%
[2]; 10^−4 M, 24 hours, control 100
  viability at 24 h: 124 ± 10%
[2]; 10^−5 M, 24 hours, control 100
  viability at 24 h: 119 ± 7%
[2]; 10^−6 M, 24 hours, control 100
  viability at 24 h: 154 ± 6%
[2]; 10^−7 M, 24 hours, control 100
  viability at 24 h: 147 ± 5%
[2]; 10^−8 M, 24 hours, control 100
  viability at 24 h: 127 ± 3%
Human keratinocytes [3]
  Cytotoxicity on keratinocytes: no cytotoxicity was observed
Human keratinocytes [4]
  Efficacy: 90%
[1]; [5]
  Apoptotic cells (%): 48.6%
[1]; [6]
  Apoptotic cells (%): 58.8%

## C[C@]12CC[C@H](O)CC1=CC[C@@H]1[C@@H]2CC[C@]2(C)C(=O)CC[C@@H]12 [DHEA, 3β-hydroxy-5-androstene-17-one, reference compound]
[2]; other comparative tests, concentration not given
  viability at 24 h: 100 ± 5%
[1]; [5]
  Apoptotic cells (%): 51.4%
[1]; [6]
  Apoptotic cells (%): 39.0%

## C[C@@H]1C[C@H]2[C@@H]3CCC4=CC(=O)C=C[C@]4(C)[C@@]3(F)[C@@H](O)C[C@]2(C)[C@@]1(O)C(=O)CO [Dexamethasone, reference compound]
[1]; Dexamethasone 10^−5 M alone, thymocytes cultured 6 hours, ethanol alone 41.5
  Apoptotic cells (%): 73.5%
[1]; Dexamethasone 10^−6 M alone, thymocytes cultured 6 hours, ethanol alone 41.5
  Apoptotic cells (%): 72.7%
